Experimental findings from US20260022096A1, “NOVEL SULFONAMIDES AND THEIR USE AS NEUROPROTECTIVE AND/OR NEURORESTORATIVE AGENTS” (GENECODE, priority 2022, published 2026) are described below.

The structures appear in SMILES notation.

This assay addresses T1, GFRα1-RET (Homo sapiens, UniProt P56159).
T1 construct: expressed in transfected cells; host or cells: MG87 murine fibroblasts, stably transfected
T1 sequence (P56159 25-429 limits assumed): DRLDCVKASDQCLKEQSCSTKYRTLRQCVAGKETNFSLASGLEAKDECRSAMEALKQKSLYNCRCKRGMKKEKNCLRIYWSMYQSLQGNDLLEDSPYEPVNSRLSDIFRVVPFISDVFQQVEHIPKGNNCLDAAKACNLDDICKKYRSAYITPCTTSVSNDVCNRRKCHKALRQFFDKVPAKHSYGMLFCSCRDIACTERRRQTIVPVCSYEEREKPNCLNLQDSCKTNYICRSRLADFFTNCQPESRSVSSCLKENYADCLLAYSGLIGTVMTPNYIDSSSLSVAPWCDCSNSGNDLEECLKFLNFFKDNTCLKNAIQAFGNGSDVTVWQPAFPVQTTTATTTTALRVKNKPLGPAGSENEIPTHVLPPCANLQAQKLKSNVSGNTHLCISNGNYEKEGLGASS
Nature of the assay: Elk1 reporter-gene (luciferase) assay in cells expressing GFRα1-RET. It counts as cell-based. The note with it: MG87 murine fibroblasts stably transfected with PathDetect Elk-1, GFRα1 and RET, 6 concentrations, agonist/activator activity. As for the experimental part:
For ECso determination, a dose-response test was performed using 6 concentrations of each tested compound. Dose-response curves were fitted using the sigmoidal dose-response (variable slope) analysis in GraphPad Prism program (Graph Pad Inc) and ECso of agonist/activator activity was calculated. Dose-response experiments were all performed in duplicate, two times independently.
For `CN1CCc2cc(S(=O)(=O)N3CCC(c4ccccc4)CC3)cc(N3[C@@H]4CC[C@H]3CN(C(=O)c3cc(F)c(F)cc3Cl)C4)c21` [compound 120, (2-chloro-4,5-difluoro-phenyl)-[(1S,5R)-8-[1-methyl-5-[(4-phenyl-1-piperidyl)sulfonyl]indolin-7-yl]-3,8-diazabicyclo[3.2.1]octan-3-yl]methanone], the EC50 is less than 1000 nM.
`CN(C(C)(C)C)S(=O)(=O)c1cc(Cl)c(OCc2cccnc2)c(N2[C@@H]3CC[C@H]2CN(C(=O)c2ccc(F)cc2Cl)C3)c1` [compound 137] gave an EC50 of less than 1000 nM.
With `CN(CC1CC1)S(=O)(=O)c1cc(F)c(O)c(N2[C@@H]3CC[C@H]2CN(C(=O)c2ccc(F)cc2Cl)C3)c1` [compound 086, 3-[(1S,5R)-3-(2-chloro-4-fluoro-benzoyl)-3,8-diazabicyclo[3.2.1]octan-8-yl]-N-(cyclopropylmethyl)-5-fluoro-4-hydroxy-N-methyl-benzenesulfonamide], the EC50 was less than 1000 nM.
As for `COC(=O)c1ccc(C2CCN(S(=O)(=O)c3ccc(OC)c(N4[C@@H]5CC[C@H]4CN(C(=O)c4ccc(F)cc4Cl)C5)c3)CC2)cc1` [compound 042, methyl 4-[1-[3-[(1S,5R)-3-(2-chloro-4-fluoro-benzoyl)-3,8-diazabicyclo[3.2.1]octan-8-yl]-4-methoxy-phenyl]sulfonyl-4-piperidyl]benzoate], the figure is less than 1000 nM; as for `CN(CC1CC1)S(=O)(=O)c1cc2c(c(N3[C@@H]4CC[C@H]3CN(C(=O)c3ccc(F)cc3Cl)C4)c1)OCC2` [compound 058, 7-[(1S,5R)-3-(2-chloro-4-fluoro-benzoyl)-3,8-diazabicyclo[3.2.1]octan-8-yl]-N-(cyclopropylmethyl)-N-methyl-2,3-dihydrobenzofuran-5-sulfonamide], 1000 to 10000 nM; as for `CCCN(C)S(=O)(=O)c1ccc(OCOC)c(N2[C@@H]3CC[C@H]2CN(C(=O)c2ccc(F)cc2Cl)C3)c1` [compound 031, 3-[(1S,5R)-3-(2-chloro-4-fluoro-benzoyl)-3,8-diazabicyclo[3.2.1]octan-8-yl]-4-(methoxymethoxy)-N-methyl-N-propyl-benzenesulfonamide], 1000 to 10000 nM.
`CCCN(C)S(=O)(=O)c1ccc(Cl)c(N2[C@@H]3CC[C@H]2CN(C(=O)c2ccc(F)cc2Cl)C3)c1` [compound 115, 4-chloro-3-[(1S,5R)-3-(2-chloro-4-fluoro-benzoyl)-3,8-diazabicyclo[3.2.1]octan-8-yl]-N-methyl-N-propyl-benzenesulfonamide] had an EC50 of less than 1000 nM.
Then `COc1ccc(S(=O)(=O)N2CCCC(Cc3ccccc3)C2)cc1N1C2CCC1CN(C(=O)c1ccc(F)cc1Cl)C2` (racemic) [compound 011, [(1S,5R)-8-[5-[[(3RS)-3-benzyl-1-piperidyl]sulfonyl]-2-methoxy-phenyl]-3,8-diazabicyclo[3.2.1]]octan-3-yl]-(2-chloro-4-fluoro-phenyl)methanone], with less than 1000 nM.
As for `CC(C)(C)NS(=O)(=O)c1cc(F)c(O)c(N2[C@@H]3CC[C@H]2CN(C(=O)c2ccc(F)cc2Cl)C3)c1` [compound 085, N-tert-butyl-3-[(1S,5R)-3-(2-chloro-4-fluoro-benzoyl)-3,8-diazabicyclo[3.2.1]octan-8-yl]-5-fluoro-4-hydroxy-benzenesulfonamide], the figure is less than 1000 nM; as for `Cc1cc(S(=O)(=O)N2CCC(c3ccc(F)cc3)CC2)cc(N2[C@@H]3CC[C@H]2CN(C(=O)c2ccc(F)cc2Cl)C3)c1O` [compound 091, (2-chloro-4-fluoro-phenyl)-[(1S,5R)-8-[5-[[4-(4-fluorophenyl)-1-piperidyl]sulfonyl]-2-hydroxy-3-methyl-phenyl]-3,8-diazabicyclo[3.2.1]octan-3-yl]methanone], less than 1000 nM.
Then `CC(C)(C)NS(=O)(=O)c1cc(Cl)c(O)c(N2[C@@H]3CC[C@H]2CN(C(=O)c2ccc(F)cc2Cl)C3)c1F` [compound 139, N-tert-butyl-5-chloro-3-[(1S,5R)-3-(2-chloro-4-fluoro-benzoyl)-3,8-diazabicyclo[3.2.1]octan-8-yl]-2-fluoro-4-hydroxy-benzenesulfonamide], with less than 1000 nM; and `CN(CC1CC1)S(=O)(=O)c1cc(Cl)c(O)c(N2[C@@H]3CC[C@H]2CN(C(=O)c2ccc(F)cc2Cl)C3)c1` [compound 096, 3-chloro-5-[(1S,5R)-3-(2-chloro-4-fluoro-benzoyl)-3,8-diazabicyclo[3.2.1]octan-8-yl]-N-(cyclopropylmethyl)-4-hydroxy-N-methyl-benzenesulfonamide], with less than 1000 nM; and `Cc1cc(S(=O)(=O)N2CCC(c3ccccc3)CC2)cc(N2[C@@H]3CC[C@H]2CN(C(=O)c2ccc(F)cc2Cl)C3)c1O` [compound 090, (2-chloro-4-fluoro-phenyl)-[(1S,5R)-8-[2-hydroxy-3-methyl-5-[(4-phenyl-1-piperidyl)sulfonyl]phenyl]-3,8-diazabicyclo[3.2.1]octan-3-yl]methanone], with less than 1000 nM.
Consider `CCN(CC)S(=O)(=O)c1cnc(Cl)c(N2[C@@H]3CC[C@H]2CN(C(=O)c2ccc(F)cc2Cl)C3)c1` [compound 032, 6-chloro-5-[(1S,5R)-3-(2-chloro-4-fluoro-benzoyl)-3,8-diazabicyclo[3.2.1]octan-8-yl]-N,N-diethyl-pyridine-3-sulfonamide], for which the EC50 fell in the range of 1000 to 10000 nM.
Then `CN(C)c1ccc(S(=O)(=O)N2CCC(c3ccccc3)CC2)cc1N1[C@@H]2CC[C@H]1CN(C(=O)c1cc(F)c(F)cc1Cl)C2` [compound 122, (2-chloro-4,5-difluoro-phenyl)-[(1S,5R)-8-[2-(dimethylamino)-5-[(4-phenyl-1-piperidyl)sulfonyl]phenyl]-3,8-diazabicyclo[3.2.1]octan-3-yl]methanone], with less than 1000 nM; and `Cc1ccc(S(=O)(=O)N2CCN(CCc3ccc(F)cc3)CC2)cc1N1[C@@H]2CC[C@H]1CN(C(=O)c1ccc(F)cc1Cl)C2` [compound 116, (2-chloro-4-fluoro-phenyl)-[(1S,5R)-8-[5-[4-[2-(4-fluorophenyl)ethyl]piperazin-1-yl]sulfonyl-2-methyl-phenyl]-3,8-diazabicyclo[3.2.1]octan-3-yl]methanone], with less than 1000 nM; and `COc1ccc(S(=O)(=O)N2CCC(c3cccc(C#N)c3)CC2)cc1N1[C@@H]2CC[C@H]1CN(C(=O)c1ccc(F)cc1Cl)C2` [compound 040, 3-[1-[3-[(1S,5R)-3-(2-chloro-4-fluoro-benzoyl)-3,8-diazabicyclo[3.2.1]octan-8-yl]-4-methoxy-phenyl]sulfonyl-4-piperidyl]benzonitrile], with less than 1000 nM.
Then `COc1ccc(S(=O)(=O)N(C)CC2CC2)cc1N1[C@@H]2CC[C@H]1CN(C(=O)c1ccc(F)cc1Cl)C2` [compound 005, 3-[(1S,5R)-3-(2-chloro-4-fluoro-benzoyl)-3,8-diazabicyclo[3.2.1]octan-8-yl]-N-(cyclopropylmethyl)-4-methoxy-N-methyl-benzenesulfonamide], with less than 1000 nM; and `O=C(c1ccc(F)cc1Cl)N1C[C@H]2CC[C@@H](C1)N2c1cc(S(=O)(=O)N2CCC(c3ccccc3)CC2)cc2c1OCCO2` [compound 118, (2-chloro-4-fluoro-phenyl)-[(1S,5R)-8-[7-[(4-phenyl-1-piperidyl)sulfonyl]-2,3-dihydro-1,4-benzodioxin-5-yl]-3,8-diazabicyclo[3.2.1]octan-3-yl]methanone], with less than 1000 nM; and `CCCN(C)S(=O)(=O)c1ccc(OC)c(N2CCN(C(=O)c3ccc(F)cc3C(F)(F)F)CC2COC)c1` (racemic) [compound 022, 4-methoxy-N-methyl-N-propyl-3-[rac-(2R)-4-[4-fluoro-2-(trifluoromethyl)benzoyl]-2-(methoxymethyl)piperazin-1-yl]benzenesulfonamide], with 10000 to 50000 nM.
In the case of `COC(=O)c1ccc(S(=O)(=O)N2CCC(c3ccccc3)CC2)cc1N1[C@@H]2CC[C@H]1CN(C(=O)c1ccc(F)cc1Cl)C2` [compound 069, methyl 2-[(1S,5R)-3-(2-chloro-4-fluoro-benzoyl)-3,8-diazabicyclo[3.2.1]octan-8-yl]-4-[(4-phenyl-1-piperidyl)sulfonyl]benzoate], the EC50 was less than 1000 nM.
For the molecule `O=C(c1ccc(F)cc1Cl)N1C[C@H]2CC[C@@H](C1)N2c1cc(S(=O)(=O)N2CCC(c3ccccc3)CC2)cc2c1OCO2` [compound 117, (2-chloro-4-fluoro-phenyl)-[(1S,5R)-8-[6-[(4-phenyl-1-piperidyl)sulfonyl]-1,3-benzodioxol-4-yl]-3,8-diazabicyclo[3.2.1]octan-3-yl]methanone], the EC50 is less than 1000 nM.
Regarding `COCCOc1c(Cl)cc(S(=O)(=O)N(C)C(C)(C)C)cc1N1[C@@H]2CC[C@H]1CN(C(=O)c1ccc(F)cc1Cl)C2` [compound 135, N-tert-butyl-3-chloro-5-[(1S,5R)-3-(2-chloro-4-fluoro-benzoyl)-3,8-diazabicyclo[3.2.1]octan-8-yl]-4-(2-methoxyethoxy)-N-methyl-benzenesulfonamide], the EC50 was less than 1000 nM.
In turn, `CCCN(C)S(=O)(=O)c1ccc(OC)c(N2C3CCC2CN(C(=O)c2ccc(F)cc2C(F)(F)F)C3)c1` [compound 024, 3-[3-[4-fluoro-2-(trifluoromethyl)benzoyl]-3,8-diazabicyclo[3.2.1]octan-8-yl]-4-methoxy-N-methyl-N-propyl-benzenesulfonamide] yielded an EC50 of 1000 to 10000 nM.
